{
  "source": "patent US11083709B2",
  "about": "“Compounds, compositions, and methods of increasing CFTR activity” (Proteostasis Therapeutics, Inc., priority 2015, dated 2021)",
  "key": {"[1]": {"target": "T1, CFTR in F508/F508del HBEs (Homo sapiens, UniProt P13569, DEL508-508)", "T1 construct": "Activity in F508/F508del HBEs (relative); endogenous in cells; host or cells: primary lung epithelial cells (HBEs), genotype F508/F508del [sic]", "T1 sequence (P13569 with tags, fused parts or gaps DEL508-508)": "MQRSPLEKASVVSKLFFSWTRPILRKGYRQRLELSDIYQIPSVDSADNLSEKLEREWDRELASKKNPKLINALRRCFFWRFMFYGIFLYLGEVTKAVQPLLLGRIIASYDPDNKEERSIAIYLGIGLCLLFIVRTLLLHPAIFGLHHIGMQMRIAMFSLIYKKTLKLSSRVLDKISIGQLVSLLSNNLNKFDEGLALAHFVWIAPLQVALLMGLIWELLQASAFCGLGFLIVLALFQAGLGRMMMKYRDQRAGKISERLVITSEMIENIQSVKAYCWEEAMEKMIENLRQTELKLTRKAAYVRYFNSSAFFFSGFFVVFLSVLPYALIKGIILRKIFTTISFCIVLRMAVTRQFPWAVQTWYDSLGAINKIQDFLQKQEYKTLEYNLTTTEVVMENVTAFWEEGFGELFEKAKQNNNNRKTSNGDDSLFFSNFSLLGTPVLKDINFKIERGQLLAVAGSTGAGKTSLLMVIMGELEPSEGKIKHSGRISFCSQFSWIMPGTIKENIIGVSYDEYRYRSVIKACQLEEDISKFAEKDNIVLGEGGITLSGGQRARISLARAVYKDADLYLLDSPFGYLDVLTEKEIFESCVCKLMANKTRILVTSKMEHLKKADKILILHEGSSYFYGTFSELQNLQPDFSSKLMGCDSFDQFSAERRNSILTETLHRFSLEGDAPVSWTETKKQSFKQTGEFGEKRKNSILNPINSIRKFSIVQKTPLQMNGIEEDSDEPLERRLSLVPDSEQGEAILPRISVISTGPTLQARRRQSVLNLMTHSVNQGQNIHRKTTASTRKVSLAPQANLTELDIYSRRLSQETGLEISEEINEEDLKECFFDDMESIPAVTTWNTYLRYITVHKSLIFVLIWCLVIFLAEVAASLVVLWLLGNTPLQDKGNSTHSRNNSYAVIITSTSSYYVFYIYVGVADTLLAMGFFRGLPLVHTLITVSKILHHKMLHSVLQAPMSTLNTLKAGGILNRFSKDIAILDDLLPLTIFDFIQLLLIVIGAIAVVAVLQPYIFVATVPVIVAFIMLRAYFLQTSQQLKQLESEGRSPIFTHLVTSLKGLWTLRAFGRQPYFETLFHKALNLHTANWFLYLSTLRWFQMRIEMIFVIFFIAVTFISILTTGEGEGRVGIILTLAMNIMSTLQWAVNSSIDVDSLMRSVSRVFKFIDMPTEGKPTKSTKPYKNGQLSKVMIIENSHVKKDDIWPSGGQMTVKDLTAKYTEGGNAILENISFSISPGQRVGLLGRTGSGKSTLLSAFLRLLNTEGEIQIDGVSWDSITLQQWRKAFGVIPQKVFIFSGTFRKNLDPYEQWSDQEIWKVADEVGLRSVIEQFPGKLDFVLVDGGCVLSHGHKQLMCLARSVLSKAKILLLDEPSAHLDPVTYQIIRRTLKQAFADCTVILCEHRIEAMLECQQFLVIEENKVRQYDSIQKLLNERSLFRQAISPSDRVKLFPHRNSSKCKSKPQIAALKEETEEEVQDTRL", "experiment": "Ussing measurements, F508del/F508del HBEs", "format": "cell-based", "details": "genotype F508del/F508del", "method": "(§1) As discussed above, Ussing measurements were used to measure CFTR activity. In this method, primary lung epithelial cells (hBEs) with a Cystic fibrosis causing class I mutation were differentiated for a minimum of 4 weeks in an air-liquid interface on SnapWell™ filter plates prior to the Ussing measurements. Cells were apically mucus-washed for 30 minutes prior to treatment with compounds. The basolateral media was removed and replaced with media containing the compound of interest diluted to its final concentration from DMSO or aqueous stocks. Treated cells were incubated at 37° C. and 5% CO2 for 24 hours. At the end of the treatment period, the cells on filters were transferred to the Ussing chamber and equilibrated for 30 minutes. The short-circuit current was measured in voltage clamp-mode (Vhold=0 mV), and the entire assay was conducted at a temperature of 36° C.-36.5° C. Once the voltages stabilized, the chambers were clamped, and data were recorded by pulse readings every 5 seconds. Following baseline current stabilization, the following additions were applied and the changes in current and resistance of the cells were monitored: • 1. Benzamil to the apical chamber to inhibit ENaC sodium channel. • 2. Forskolin to both chambers to activate ΔF508-CFTR by phosphorylation. • 3. Ivacaftor or Genistein to the apical chamber to potentiate ΔF508-CFTR channel opening. • 4. CFTRinh-172 to the apical chamber to inhibit ΔF508-CFTR Cl-conductance.\nThe forskolin-sensitive current and inhibitable current (that potentiated current that was blocked by CFTRinh-172) were measured as the specific activity of the ΔF508-CFTR channel, and increase in response to compound in this activity over that observed in vehicle-treated samples were identified as the correction of ΔF508-CFTR function imparted by the compound tested.\nThe results are shown below in Tables 3 and 4. Compound A is 10 uM and VX-809 is 3 uM and ivacaftor is 1 uM."}, "[2]": {"test_system": "CFTR in R117H/F508del HBEs", "experiment": "Ussing measurements, R117H/F508del HBEs", "format": "cell-based, human", "details": "genotype R117H/F508del", "method": "as §1, with “Ussing measurements was used to” for “Ussing measurements were used to”, “a Cystic Fibrosis-causing class III” for “a Cystic fibrosis causing class I”, “Fibrosis-causing class III mutation were” for “causing class I mutation were”, “from DMSO stocks. Treated” for “from DMSO or aqueous stocks. Treated”, “and data was recorded by” for “and data were recorded by”, “the cells was monitored: •” for “the cells were monitored: •”\n(§2) The forskolin-sensitive current and inhibitable current (that potentiated current that is blocked by CFTRinh-172) were measured as the specific activity of the ΔF508-CFTR channel, and increase in response to compound in this activity over that observed in vehicle-treated samples were identified as the correction of ΔF508-CFTR function imparted by the compound tested.\n(§3) The results are shown below in Tables 5 and 6. Compound A is 10 uM and VX-809 is 3 uM and ivacaftor is 1 uM."}, "[3]": {"test_system": "CFTR in G551D/F508del HBEs", "experiment": "Ussing measurements, G551D/F508del HBEs", "format": "cell-based, human", "details": "genotype G551D/F508del", "method": "as §1, with “Ussing measurements was used to” for “Ussing measurements were used to”, “a Cystic Fibrosis-causing class III” for “a Cystic fibrosis causing class I”, “Fibrosis-causing class III mutation were” for “causing class I mutation were”, “from DMSO stocks. Treated” for “from DMSO or aqueous stocks. Treated”, “and data was recorded by” for “and data were recorded by”, “the cells was monitored: •” for “the cells were monitored: •”\nas §2, §3"}, "[4]": {"test_system": "CFTR, genotype 3849 + 10kb C > T/N1303K", "experiment": "CFTR activity by mutation type, 3849 + 10kb C > T/N1303K (Table 7)", "format": "cell-based, human"}, "[5]": {"details": "compound A 10uM + ivacaftor 1uM, relative activity of 100% = ivacaftor"}, "[6]": {"details": "compound A 10uM, relative activity of 100% = ivacaftor (1uM)"}},
  "data": [
    {"smiles": "C[C@@H](O)c1nnc([C@H]2C[C@H](NC(=O)c3cc(-c4ccccc4)no3)C2)o1", "note": "[Example 6, N-(trans-3-(5-((R)-1-hydroxyethyl)-1,3,4-oxadiazol-2-yl)cyclobutyl)-3-phenylisoxazole-5-carboxamide]", "values": [
      {"measurement": "Combination with ivacaftor and VX-661, activity", "setting": "[1]; compound A 10uM + ivacaftor 1uM + VX-661 3 uM, relative activity of 100% = ivacaftor and VX-661", "result": "++++ (++++ indicates activity at 10uM of >150% of the indicated relative activity treatment)"},
      {"measurement": "Combination with ivacaftor and lumacaftor, activity", "setting": "[1]; compound A 10uM + ivacaftor 1uM + lumacaftor 3 uM, relative activity of 100% = ivacaftor and lumacaftor", "result": "++++ (++++ indicates activity at 10uM of >150% of the indicated relative activity treatment)"},
      {"measurement": "Stand Alone activity", "setting": "[1]; compound A 10uM, relative activity of 100% = ivacaftor (1uM) and lumacaftor (3 uM)", "result": "+ (+ indicates activity at 10uM of 15% to <50% of the indicated relative activity treatment)"},
      {"measurement": "Combination with ivacaftor, activity", "setting": "[2]; [5]", "result": "++++ (++++ indicates activity at 10uM of >150% of the indicated relative activity treatment)"},
      {"measurement": "Stand Alone activity", "setting": "[2]; [6]", "result": "+++ (+++ indicates activity at 10uM of 100% to <150% of the indicated relative activity treatment)"},
      {"measurement": "Combination with ivacaftor, activity", "setting": "[3]; [5]", "result": "++++ (++++ indicates activity at 10uM of >150% of the indicated relative activity treatment)"},
      {"measurement": "Stand Alone activity", "setting": "[3]; [6]", "result": "+ (+ indicates activity at 10uM of 15% to <50% of the indicated relative activity treatment)"},
      {"measurement": "Combination with ivacaftor, activity", "setting": "[4]; [5]", "result": "+++ (+++ indicates activity at 10uM of 100% to <150% of the indicated relative activity treatment)"},
      {"measurement": "Stand Alone activity", "setting": "[4]; [6]", "result": "++ (++ indicates activity at 10uM of 50% to <100% of the indicated relative activity treatment)"}
    ]}
  ]
}
